Data: patent US20260176232A1, “PROBENECID COMPOUNDS FOR THE TREATMENT OF INFLAMMASOME-MEDIATED DERMATOLOGICAL CONDITIONS” (Bacainn Biotherapeutics, Ltd., priority 2022, published 2026)

Columns and labels:
[1] = molecular target: T1, NLRP3 (Mus musculus, UniProt Q8R4B8); experiment: NLRP3-induced IL-1β secretion from iBMDMs, photo-affinity probes; format: cell-based; conditions: data not shown
T1 construct: endogenous in cells; host or cells: iBMDMs
Text: To verify interaction with target proteins, a photo-affinity labeling strategy (MacKinnon+Taunton, 2009) was developed where two modified versions of ADSO32 (1) containing an alkyne photoactivatable moiety linked with a PEG550 moiety to allow visualization (FIG. 9A) termed ADS165; and (2) ADSO32 linked with a diazirine photo-affinity label, (FIG. 9B) termed ADS167 were synthesized. Both photo-affinity labels covalently cross-link to molecular targets when exposed to ultraviolet light (365 nm).

[2] = tested on: NLRP3; experiment: D4D8T immunoprecipitation of NLRP3 from photo-labelled iBMDMs (FIG. 9D); conditions: ADS165, ADS167 1 mM; MCC 50 μM; UV 365 nm 30 mins
[3] = tested on: Recombinant NLRP3; experiment: Photo-affinity labelling of recombinant NLRP3, anti-PEG immunoblot (FIG. 9C); format: binding; conditions: pre-incubation 20 mins, UV 365 nm, then ADS165
[4] = molecular target: T2, recombinant full length NLRP1 (Homo sapiens, UniProt Q9C000); experiment: Photo-affinity labelling of recombinant full length NLRP1, anti-PEG immunoblot (FIG. 9E); format: binding; conditions: pre-incubation, UV 365 nm, then ADS165
T2 sequence (Q9C000 1-1473): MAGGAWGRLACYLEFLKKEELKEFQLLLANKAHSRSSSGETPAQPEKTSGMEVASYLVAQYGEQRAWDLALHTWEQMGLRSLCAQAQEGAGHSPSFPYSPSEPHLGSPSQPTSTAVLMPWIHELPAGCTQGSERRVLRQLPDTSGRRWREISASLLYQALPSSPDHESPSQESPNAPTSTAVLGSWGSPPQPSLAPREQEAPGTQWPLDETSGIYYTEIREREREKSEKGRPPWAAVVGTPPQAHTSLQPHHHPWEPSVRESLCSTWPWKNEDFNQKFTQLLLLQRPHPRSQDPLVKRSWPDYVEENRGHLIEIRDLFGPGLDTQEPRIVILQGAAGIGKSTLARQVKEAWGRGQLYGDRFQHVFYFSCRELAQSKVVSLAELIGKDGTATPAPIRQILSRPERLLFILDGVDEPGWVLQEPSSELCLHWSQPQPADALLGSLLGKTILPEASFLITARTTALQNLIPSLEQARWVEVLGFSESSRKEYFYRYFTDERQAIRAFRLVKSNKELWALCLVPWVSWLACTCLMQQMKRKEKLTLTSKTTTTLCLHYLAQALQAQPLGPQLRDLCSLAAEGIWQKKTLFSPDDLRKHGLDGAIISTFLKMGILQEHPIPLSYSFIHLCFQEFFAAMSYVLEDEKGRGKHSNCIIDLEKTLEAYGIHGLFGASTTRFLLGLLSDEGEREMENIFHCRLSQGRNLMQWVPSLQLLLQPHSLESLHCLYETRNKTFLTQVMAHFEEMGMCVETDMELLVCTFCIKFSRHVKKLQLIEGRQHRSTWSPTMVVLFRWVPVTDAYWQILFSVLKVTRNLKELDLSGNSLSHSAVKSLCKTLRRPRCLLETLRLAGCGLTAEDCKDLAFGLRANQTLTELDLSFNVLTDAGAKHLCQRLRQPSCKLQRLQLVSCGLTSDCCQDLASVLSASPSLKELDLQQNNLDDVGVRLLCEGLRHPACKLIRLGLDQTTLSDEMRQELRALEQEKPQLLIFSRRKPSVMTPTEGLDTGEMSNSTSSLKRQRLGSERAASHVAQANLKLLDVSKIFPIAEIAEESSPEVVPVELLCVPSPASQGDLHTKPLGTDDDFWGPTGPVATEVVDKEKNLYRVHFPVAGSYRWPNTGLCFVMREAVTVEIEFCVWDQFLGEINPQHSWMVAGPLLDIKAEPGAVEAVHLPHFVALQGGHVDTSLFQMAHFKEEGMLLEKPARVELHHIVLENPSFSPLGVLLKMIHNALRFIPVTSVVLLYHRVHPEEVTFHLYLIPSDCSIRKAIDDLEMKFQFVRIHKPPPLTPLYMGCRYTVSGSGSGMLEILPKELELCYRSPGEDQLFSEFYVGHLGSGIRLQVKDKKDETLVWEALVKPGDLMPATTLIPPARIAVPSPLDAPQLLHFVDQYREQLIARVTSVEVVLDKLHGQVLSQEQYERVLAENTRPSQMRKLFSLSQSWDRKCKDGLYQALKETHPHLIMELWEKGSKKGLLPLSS
Method: FIGS. 9A-9F are a series of panels showing ADS032 (also referred to herein as “BT032”) directly binds to NLRP1 and NLRP3. FIGS. 9A and 9B are chemical structures of ADS165 and ADS167. […] ADS165 was then co-incubated for 20 mins and UV treated for 20 mins to cross-link associated compound and protein. Protein was separated by SDS-PAGE and immunoblotted (IB) with anti-PEG to visualize ADS165-linked protein. FIG. 9D: iBMDM cells stably expressing NLRP3-Flag were treated for 30 mins with ADS165, ADS167 (1 mM) or MCC955 (50 μM) for 30 mins, and irradiated with UV 365 nm for 30 mins. Cells were lysed with buffer and immunoprecipitation (IP) of NLRP3 performed with α-NLRP3 (D4D8T) antibody. Levels of precipitated (IP) and total cellular lysate (Input) NLRP3 were determined by immunoblotting with α-NLRP3 (Cryo-2) antibody. FIG. 9F: NLRP1-Flag was expressed in HEK293T cells (1×10^6) for 20 h and treated with ADS165 (1 mM) for 30 mins where indicated, followed by UV 365 nm for a further 30 mins. Cells were lysed with lysis buffer and […] immunoprecipitated with α-Flag (M2) antibody. Proteins were separated by SDS-PAGE and ADS165-linked NLRP1 identified by immunoblot with a-PEG, while total precipitated NLRP1 visualized by immunoblot with α-NLRP1 and total cell lysate by α-Flag. Data shown is representative of three independent experiments.
Next, it was determined whether ADSO32 could interact with NLRP1. […] To further investigate this interaction, ectopically expressed Flag-tagged NLRP1 was immunoprecipitated from cell lysates pretreated or not with ADS165 and exposed to UV light.

[5] = tested on: NLRP1 inflammasome; experiment: IL-1β secretion in macrophages challenged with L18-MDP (FIG. 7); format: cell-based, human; conditions: 20, 100, 350 μM, L18-MDP 100 μg/mL 16 hours, secreted IL-1β
Text: (§1) In vitro stimulation of human macrophages.

[6] = molecular target: NLRP3 inflammasome (Mus musculus, UniProt Q8R4B8); experiment: IL-1β secretion (ELISA) in LPS-primed iBMDMs stimulated with silica or nigericin; format: cell-based, murine (C57BL/6); set-up: endogenous in cells; host or cells: immortalized wild-type C57BL/6 bone-marrow derived macrophages (iBMDMs), LPS-primed; conditions: compared with probenecid in DMSO or PBS
NLRP3 inflammasome, sequence (Q8R4B8 whole entry): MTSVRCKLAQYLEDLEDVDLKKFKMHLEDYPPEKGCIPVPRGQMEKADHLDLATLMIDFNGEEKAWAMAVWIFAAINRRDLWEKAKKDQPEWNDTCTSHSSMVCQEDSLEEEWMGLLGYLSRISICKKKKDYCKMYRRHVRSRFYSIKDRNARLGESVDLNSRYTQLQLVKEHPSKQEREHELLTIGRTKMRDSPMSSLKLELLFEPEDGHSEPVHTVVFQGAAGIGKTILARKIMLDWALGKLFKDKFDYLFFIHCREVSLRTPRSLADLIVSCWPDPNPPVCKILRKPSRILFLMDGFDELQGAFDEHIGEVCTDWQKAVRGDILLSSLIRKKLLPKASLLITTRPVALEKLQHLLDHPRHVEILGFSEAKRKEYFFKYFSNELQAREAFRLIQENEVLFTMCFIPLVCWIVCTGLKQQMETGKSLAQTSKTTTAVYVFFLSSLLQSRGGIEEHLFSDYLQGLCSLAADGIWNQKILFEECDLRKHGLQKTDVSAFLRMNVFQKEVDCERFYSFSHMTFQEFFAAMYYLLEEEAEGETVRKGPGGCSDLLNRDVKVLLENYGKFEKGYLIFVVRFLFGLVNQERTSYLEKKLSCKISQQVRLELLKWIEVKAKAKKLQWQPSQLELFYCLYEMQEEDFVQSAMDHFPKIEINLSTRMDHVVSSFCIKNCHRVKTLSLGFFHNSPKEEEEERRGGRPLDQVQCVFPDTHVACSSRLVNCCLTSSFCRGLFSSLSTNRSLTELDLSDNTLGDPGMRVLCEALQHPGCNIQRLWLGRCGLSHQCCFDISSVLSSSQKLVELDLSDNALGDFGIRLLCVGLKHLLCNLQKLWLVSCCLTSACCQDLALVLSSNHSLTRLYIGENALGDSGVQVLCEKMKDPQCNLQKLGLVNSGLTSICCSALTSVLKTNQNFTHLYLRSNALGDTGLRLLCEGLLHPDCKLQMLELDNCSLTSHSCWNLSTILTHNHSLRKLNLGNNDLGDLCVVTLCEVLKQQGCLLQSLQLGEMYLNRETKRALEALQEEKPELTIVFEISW
Method: In vitro stimulation of murine macrophages. Immortalized wild-type C57BL/6 bone-marrow derived macrophages (iBMDMs) were grown in DMEM supplemented with 10% heat inactivated FBS and 2 mM glutamine. iBMDMs were seeded in 96-well plates 24 hours prior incubation with lipopolysaccharide (LPS; 100 ng/mL) for 3 hours. Cells were then incubated with a control probenecid compound (probenecid dissolved in DMSO (Prob/D), probenecid dissolved in PBS (Prob/P)) or one of the probenecid analogs of the present technology (BT032, BT132, BT133, BT134, BT135, BT136, BT137, BT138, BT139, or BT140) at concentrations of 300 μM, 150 μM, 30 μM, or 3 μM 1 hour prior to stimulation with NLRP3 inflammasome activators, silica ([…]) or nigericin (6 μM). After an additional 6 hours, cell supernatants were collected and levels of IL-1β were quantified by ELISA. These experiments were run in triplicate three times.

[7] = tested on: NLRP1 inflammasome; experiment: IL-1β secretion in macrophages challenged with L18-MDP (FIG. 4C); format: cell-based, human; conditions: BT032 20, 100 μM; MCC950 5 μM; L18-MDP 100 μg/ml 16 h
Text: as §1

T1 sequence (Q8R4B8 whole entry): as above

CCCCN(CCC)S(=O)(=O)c1ccc(-c2ccc(CCCC(=O)NCc3ccc(C4(C(F)(F)F)N=N4)cc3)cc2)cc1 [ADS167]
NLRP3-induced IL-1β secretion from iBMDMs [1]: still able to inhibit NLRP3-induced IL-1β secretion
efficacy relative to ADS032 (NLRP3-induced IL-1β secretion) [1]: reduced efficacy as compared to ADS032
D4D8T-mediated NLRP3 immunoprecipitation [2]: reduced the efficacy of D4D8T-mediated NLRP3 immunoprecipitation
competition with ADS165 labelling of NLRP3 [3]: inhibited the ability of ADS165 to label NLPR3
competition with ADS165 interaction with NLRP1 [4]: could ablate interaction

CCCN(CCC)S(=O)(=O)c1ccc(-c2nc(CCCC(=O)O)cs2)cc1 [BT136, 4-(2-(4-(N,N-dipropylsulfamoyl)phenyl)thiazol-4-yl)butanoic acid]
NLRP1 (L18-MDP)-induced inflammasome activation [5]: dose-dependently inhibited
potency versus control probenecid compounds (IL-1β secretion) [6]: more potent than the control probenecid compounds

CCCN(CCC)S(=O)(=O)c1ccc(N2CCC(CCCC(=O)O)CC2)cc1 [BT135, 4-(1-(4-(N,N-dipropylsulfamoyl)-phenyl)piperidin-4-yl)butanoic acid]
NLRP1 (L18-MDP)-induced inflammasome activation [5]: dose-dependently inhibited

CC(C)(O)c1coc(S(=O)(=O)NC(=O)Nc2c3c(cc4c2CCC4)CCC3)c1 [MCC950, reference compound]
NLRP1 (L18-MDP)-induced inflammasome activation [7]: no impact
competition with ADS165 interaction with NLRP1 [4]: no effect
